Test results published in PMC6308302, “Identification of Pharmacokinetic Markers for Guanxin Danshen Drop Pills in Rats by Combination of Pharmacokinetics, Systems Pharmacology, and Pharmacodynamic Assays” (Frontiers in Pharmacology, 2018).
Entries after “also recorded” stand apart in the source; their conditions may differ. Marks after values point to notes of the source that are not given here. One block for each compound: values may come before it.

Tests used:
[1] = Multiple component PK study in rat plasma after p.o. GDDP (HPLC-MS); details: for determination in rat plasma at the planned successive PK time points / detection in rat plasma: GDDP 0.8 g/kg p.o.; for determination in rat plasma at the planned successive PK time points: 5, 10, 15, 30, 45, 60, and 120 min, LOQ 1.0–1.4 ng/mL; for detection in rat plasma: at 5, 10, 15, 30, 45, or 60 min, LOD 0.5–0.7 ng/mL
[2] = Stability tests in rat plasma (QC samples, HPLC-MS); details: n=5
Excerpt: Accuracy and precision were expressed by relative error (RE) and coefficient of variance (RSD), respectively.

Caco-2 cell monolayers = details: ref Lu et al., 2008, Liu et al., 2009, Hu et al., 2014, Bowles et al., 2017, cited from earlier work; for Papp(apical→basolateral) / Papp(basolateral→apical): Caco-2 cell monolayers, from literature; for apparent permeability in Caco-2 cell monolayers: previous results
[3] = Aqueous solubility test (vortexing in water); type: physicochemical; details: water at 25 °C
Procedure: Aqueous solubility (S) test of the 17 ingredients was performed by vortexing 10 mg of each ingredient in […] water in a test tube at ambient temperature and 1 atm. After vortexing for 5 min, if the solution is clear, the tested object will be considered as soluble in water. In silico assessment of the physicochemical properties governing permeation and intestinal absorption was carried out for the 17 ingredients studied. Theory aqueous solubility (S) was calculated with ALOGPS 2.1 online software via the Virtual Computational Chemistry Laboratory service (Chemoinformatics Group, Neuherberg, Germany) (VCCLAB^1). The octanol–water partition coefficient (cLogP), the total hydrogen bond count (donors and acceptors), and topological polar surface area (TPSA) were determined using the Molinspiration Property Calculator (Molinspiration Cheminformatics, Bratislava, Slovak Republic^2). Lipinski’s rule of 5 was used to predict the permeability of the compound ([Lipinski et al., 2001]).

[4] = tested on: isoprenaline-induced MI in mice; assay: In vivo anti-MI study: isoprenaline-induced myocardial injury (ECG, H&E histology); details: for ECG (lead II) findings on the fifth day of the trial: 40 mg/kg p.o., isoprenaline 5 mg/kg on days 4 and 5
[5] = Sprague-Dawley, rat, plasma, po, 0.4 g/kg
[6] = Sprague-Dawley, rat, plasma, po, 0.4 g/kg, Cmax, rat plasma, GDDP 0.4 g/kg p.o. (Low dose group), n=3
[7] = Sprague-Dawley, rat, plasma, po, 0.8 g/kg
[8] = Sprague-Dawley, rat, plasma, po, 0.8 g/kg, Cmax (high / low plasma drug concentrations), rats, GDDP 0.4 and 0.8 g/kg p.o., classification
[9] = Sprague-Dawley, rat, plasma, po, 0.8 g/kg, Cmax, rat plasma, GDDP 0.8 g/kg p.o. (High dose group), n=3
[10] = Sprague-Dawley, rat, plasma, po, 0.8 g/kg, t1/2 β (fast / slow elimination type), rats, GDDP 0.4 and 0.8 g/kg p.o., classification
[11] = Sprague-Dawley, rat, plasma, po, 0.8 g/kg, t1/2 β, rat plasma, GDDP 0.8 g/kg p.o. (High dose group), n=3
[12] = rat plasma, GDDP 0.4 g/kg p.o. (Low dose group), n=3
[13] = rat plasma, GDDP 0.8 g/kg p.o. (High dose group), n=3
[14] = 24h in auto-sampler vials, spiked 2 ng/mL
[15] = 24h in auto-sampler vials, spiked 400 ng/mL
[16] = 24h in auto-sampler vials, spiked 1600 ng/mL
[17] = Placing plasma for 6h at 4°C, spiked 2 ng/mL
[18] = Placing plasma for 6h at 4°C, spiked 400 ng/mL
[19] = Placing plasma for 6h at 4°C, spiked 1600 ng/mL
[20] = three freeze-thaw cycles, rat plasma, spiked 2 ng/mL
[21] = three freeze-thaw cycles, rat plasma, spiked 400 ng/mL
[22] = three freeze-thaw cycles, rat plasma, spiked 1600 ng/mL
[23] = 40 mg/kg p.o. for 7 days, isoprenaline-induced MI

- determination in rat plasma at the planned successive PK time points [1]: could be determined
- detection in rat plasma [1]: could be detected
- AUC(0-inf) [1, 5]: 125 ± 115 ng·h/mL
- AUC(0-t) [1, 5]: 63 ± 49.5 ng·h/mL
- MRT inf [1, 5]: 27.3 ± 10.6 h
- MRT last [1, 5]: 9.93 ± 0.87 h
- Tmax [1, 5]: 1.25 ± 1.06 h
- Cmax [1, 6]: 6.1 ± 3.08 ng/mL
- half-life ([1]; Sprague-Dawley, rat, plasma, po, 0.4 g/kg, t1/2 β, rat plasma, GDDP 0.4 g/kg p.o. (Low dose group), n=3): 16.4 ± 8.87 h
- AUC(0-inf) [1, 7]: 45.1 ± 20.6 ng·h/mL
- AUC(0-t) [1, 7]: 40.1 ± 17.3 ng·h/mL
- MRT inf [1, 7]: 7.72 ± 2.17 h
- MRT last [1, 7]: 4.27 ± 1.62 h
- Tmax [1, 7]: 1.25 ± 0.66 h
- Cmax [1, 8]: < 10 ng/mL
- Cmax [1, 9]: 8.59 ± 3.18 ng/mL
- half-life [1, 10]: > 2.6 h
- half-life [1, 11]: 11.7 ± 4.78 h
- Cltot [1, 12]: 45.3 ± 41.8 mL/min/kg
- Cltot [1, 13]: 163 ± 59.8 mL/min/kg
- Stability: Measured [2, 14]: 2.02 ± 0.32 ng/mL
- Stability: RE [2, 14]: 0.78%
- Stability: Measured [2, 15]: 470.56 ± 54.19 ng/mL
- Stability: RE [2, 15]: 17.64%
- Stability: Measured [2, 16]: 1562.58 ± 145.90 ng/mL
- Stability: RE [2, 16]: -2.34%
- Stability: Measured [2, 17]: 2.22 ± 0.30 ng/mL
- Stability: RE [2, 17]: 10.90%
- Stability: Measured [2, 18]: 469.39 ± 24.45 ng/mL
- Stability: RE [2, 18]: 17.35%
- Stability: Measured [2, 19]: 1771.82 ± 333.46 ng/mL
- Stability: RE [2, 19]: 10.74%
- Stability: Measured [2, 20]: 2.09 ± 0.20 ng/mL
- Stability: RE [2, 20]: 4.39%
- Stability: Measured [2, 21]: 459.00 ± 25.68 ng/mL
- Stability: RE [2, 21]: 14.75%
- Stability: Measured [2, 22]: 1482.38 ± 283.06 ng/mL
- Stability: RE [2, 22]: -7.32%
- solubility in water (in words) [3]: insoluble
Compound: Cc1coc2c1C(=O)C(=O)c1c-2ccc2c(C)cccc12 [TS I, tanshinone I]
- Papp(apical→basolateral) (Caco-2 cell monolayers): 0.95^d ×10^-6 cm/s
- Papp(basolateral→apical) (Caco-2 cell monolayers): 11.27^d ×10^-6 cm/s
- apparent permeability in Caco-2 cell monolayers (Caco-2 cell monolayers): ≥ 10^-6 cm/s
- Histopathology of heart tissue (H&E) ([4]; 40 mg/kg p.o. for 7 days, isoprenaline-induced MI, 40 mg/kg): myocardial lysis, architecture disorder, and loss of striations in heart tissue; also recorded: myocardial lysis, and architecture disorder, and loss of striations in heart tissue
- ECG (lead II) findings on the fifth day of the trial [4]: T waves reversed or decreased

- determination in rat plasma at the planned successive PK time points [1]: could be determined
- detection in rat plasma [1]: could be detected
- AUC(0-inf) [1, 5]: 71.7 ± 47.4 ng·h/mL
- AUC(0-t) [1, 5]: 23.5 ± 6.4 ng·h/mL
- MRT last [1, 5]: 5.4 ± 0.41 h
- Cmax [1, 6]: 4.04 ± 0.72 ng/mL
- AUC(0-inf) [1, 7]: 90.7 ± 52.9 ng·h/mL
- AUC(0-t) [1, 7]: 31.1 ± 1.74 ng·h/mL
- MRT last [1, 7]: 5.23 ± 0.04 h
- Tmax [1, 7]: 0.33 ± 0.14 h
- Cmax [1, 8]: < 10 ng/mL
- Cmax [1, 9]: 9.21 ± 0.78 ng/mL
- half-life [1, 10]: > 2.6 h
- half-life [1, 11]: 18.3 ± 13 h
- Cltot [1, 12]: 382.2 ± 252.5 mL/min/kg
- MRT0-∞ [1, 12]: 27.09 ± 16.67 h
- Tmax [1, 12]: 0.25 ± 0.00 h
- t1/2 β [1, 12]: 18.14 ± 12.52 h
- Cltot [1, 13]: 585.2 ± 304.2 mL/min/kg
- MRT0-∞ [1, 13]: 26.52 ± 19.83 h
- Stability: Measured [2, 14]: 2.25 ± 0.34 ng/mL
- Stability: RE [2, 14]: 12.73%
- Stability: Measured [2, 15]: 464.77 ± 53.87 ng/mL
- Stability: RE [2, 15]: 16.19%
- Stability: Measured [2, 16]: 1714.76 ± 174.65 ng/mL
- Stability: RE [2, 16]: 7.17%
- Stability: Measured [2, 17]: 2.14 ± 0.11 ng/mL
- Stability: RE [2, 17]: 6.84%
- Stability: Measured [2, 18]: 462.76 ± 13.70 ng/mL
- Stability: RE [2, 18]: 15.69%
- Stability: Measured [2, 19]: 1933.47 ± 224.22 ng/mL
- Stability: RE [2, 19]: 20.84%
- Stability: Measured [2, 20]: 2.10 ± 0.23 ng/mL
- Stability: RE [2, 20]: 4.94%
- Stability: Measured [2, 21]: 468.67 ± 61.03 ng/mL
- Stability: RE [2, 21]: 19.13%
- Stability: Measured [2, 22]: 1830.46 ± 289.25 ng/mL
- Stability: RE [2, 22]: 14.40%
- solubility in water (in words) [3]: insoluble
Compound: Cc1coc2c1C(=O)C(=O)c1c-2ccc2c1CCCC2(C)C [TS IIA, tanshinone (TS) IIA]
- Papp(apical→basolateral) (Caco-2 cell monolayers): 0.98^d ×10^-6 cm/s
- Papp(basolateral→apical) (Caco-2 cell monolayers): 11.81^d ×10^-6 cm/s
- apparent permeability in Caco-2 cell monolayers (Caco-2 cell monolayers): ≥ 10^-6 cm/s
- ST segment elevations on the seventh day of the trial ([4]; 40 mg/kg p.o. for 7 days, compared with model group, P < 0.05): significantly decreased
- Histopathology of heart tissue (H&E) [4, 23]: edema, inflammatory infiltration, and loss of striations in heart tissue
- anti-MI effect (overall conclusion) [4, 23]: mild therapeutic effect
- ECG (lead II) findings on the fifth day of the trial [4]: ST segment elevated
